Assay results reported in patent US20100267725A1, “Compounds, Compositions and Methods Comprising 4N-Substituted Triazole Derivatives” (Institute for OneWorld Health, priority 2009, published 2010).

The compounds below were run against T1, CFTR channel (Homo sapiens, UniProt P13569) (assay: T84 assay (FLIPR membrane potential dye, forskolin/IBMX-stimulated CFTR channel activity)). Details: Human colonic T84 cells; CFTR stimulated with 10 μM forskolin + 100 μM IBMX.
T1 construct: host or cells: Human colonic T84 cells
T1 sequence (P13569 whole entry): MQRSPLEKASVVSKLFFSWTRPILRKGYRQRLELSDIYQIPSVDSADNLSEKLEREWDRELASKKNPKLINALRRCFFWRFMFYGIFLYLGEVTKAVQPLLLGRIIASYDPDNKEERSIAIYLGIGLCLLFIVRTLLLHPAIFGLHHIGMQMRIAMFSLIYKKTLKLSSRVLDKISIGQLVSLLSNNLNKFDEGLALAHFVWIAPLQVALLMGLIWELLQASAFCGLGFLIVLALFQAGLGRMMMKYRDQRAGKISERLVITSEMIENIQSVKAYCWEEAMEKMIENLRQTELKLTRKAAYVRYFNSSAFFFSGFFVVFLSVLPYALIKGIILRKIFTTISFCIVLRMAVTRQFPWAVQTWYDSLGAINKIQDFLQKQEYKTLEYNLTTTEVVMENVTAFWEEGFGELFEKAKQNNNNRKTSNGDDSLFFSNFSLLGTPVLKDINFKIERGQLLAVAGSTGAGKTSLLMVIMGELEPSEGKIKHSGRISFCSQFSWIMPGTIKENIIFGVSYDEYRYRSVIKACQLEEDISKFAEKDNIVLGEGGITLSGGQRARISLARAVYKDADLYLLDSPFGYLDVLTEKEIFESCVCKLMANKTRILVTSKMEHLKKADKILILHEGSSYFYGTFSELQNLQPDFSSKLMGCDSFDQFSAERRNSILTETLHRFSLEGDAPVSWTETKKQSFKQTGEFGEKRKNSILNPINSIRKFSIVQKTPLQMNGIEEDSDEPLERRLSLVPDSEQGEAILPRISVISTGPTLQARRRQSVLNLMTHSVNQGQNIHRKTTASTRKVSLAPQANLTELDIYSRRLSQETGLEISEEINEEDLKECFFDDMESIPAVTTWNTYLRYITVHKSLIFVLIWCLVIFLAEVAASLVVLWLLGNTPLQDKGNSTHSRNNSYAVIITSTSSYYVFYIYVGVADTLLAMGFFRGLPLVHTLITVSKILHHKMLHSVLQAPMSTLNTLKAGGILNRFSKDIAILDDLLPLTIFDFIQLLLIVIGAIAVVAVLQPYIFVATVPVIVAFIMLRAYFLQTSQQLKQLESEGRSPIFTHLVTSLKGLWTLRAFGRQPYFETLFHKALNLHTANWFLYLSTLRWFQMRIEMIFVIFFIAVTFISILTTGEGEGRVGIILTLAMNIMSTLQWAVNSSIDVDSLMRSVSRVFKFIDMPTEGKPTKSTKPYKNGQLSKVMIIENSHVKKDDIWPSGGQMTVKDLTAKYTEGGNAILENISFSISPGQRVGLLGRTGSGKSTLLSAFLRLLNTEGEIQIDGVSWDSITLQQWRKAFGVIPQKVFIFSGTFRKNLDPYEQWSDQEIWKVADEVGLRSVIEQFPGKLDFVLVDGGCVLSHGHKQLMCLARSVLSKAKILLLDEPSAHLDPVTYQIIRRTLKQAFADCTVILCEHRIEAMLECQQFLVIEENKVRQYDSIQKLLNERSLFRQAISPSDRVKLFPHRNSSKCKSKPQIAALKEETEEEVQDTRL
Type: cell-based
Procedure: (§1) For example, Human colonic T84 cells can be acquired from the European Collection of Cell Cultures (ECACC) and grown in standard culture conditions as described by the supplier. On the day before assay 25,000 T84 cells per well are plated into standard black walled, clear bottom 384-well assay plates in standard growth medium consisting of DMEM:F12 with 10% FBS and incubated overnight. On the day of the assay the plates are washed using a standard assay buffer (HBSS with 10 mM Hepes) and incubated for 15 minutes in serum free cell culture medium before the addition of a commercially available membrane potential sensitive fluorescent dye (FLIPR Red membrane potential dye, Molecular Devices Corporation). T84 cells are incubated with the FLIPR Red membrane potential dye for 45 minutes in the presence and absence of test compound before being transferred to a commercially available fluorescence imaging plate reader (FLIPR384, Molecular Devices Corporation). Fluorescence levels are monitored continuously every second for 150 seconds; after an initial 10 second baseline, CFTR channel activity is stimulated through the addition of 10 μM forskolin in the presence of 100 μM of the phosphodiesterase inhibitor iso-butyl-methylxanthine (IBMX). Addition of the forskolin leads to the activation of intracellular adenylyl cylase 1, elevating cAMP levels and results in the phosphorylation and opening of CFTR anion channels. CFTR channel opening causes chloride ion efflux and subsequent depolarization of the cells, which is measured by an increase in fluorescence. CFTR inhibitor compounds prevent cell depolarization and the associated increase in fluorescence.
as §1, with “Human colonic” for “For example, Human colonic”, “T84 cells are acquired from” for “T84 cells can be acquired from”, “(ECACC) and are grown in” for “(ECACC) and grown in”

Question: How did the IC50 turn out when O=C(NCc1ccc(Oc2ccccc2)cc1)c1nnc(-c2cc(Cl)c(O)c(Cl)c2)n1Cc1ccc(CN2CCOCC2)cc1 [Compound 6, 5-(3,5-dichloro-4-hydroxyphenyl)-4-(4-(morpholinomethyl)benzyl)-N-(4-phenoxybenzyl)-4H-1,2,4-triazole-3-carboxamide] was run?
Answer: Its IC50 is 12.8 µM.

Question: How did the IC50 turn out when CN(C)c1cccc(Cn2c(C(=O)NCc3ccc(Oc4ccccc4)cc3)nnc2-c2cc(Cl)c(O)c(Cl)c2)c1 [Compound 2, 5-(3,5-dichloro-4-hydroxyphenyl)-4-(3-(dimethylamino)benzyl)-N-(4-phenoxybenzyl)-4H-1,2,4-triazole-3-carboxamide] was run?
Answer: Its IC50 is 6.69 µM.

Question: How did the IC50 turn out when O=C(NCc1ccc(Oc2ccccc2)cc1)c1nnc(-c2cc(Cl)c(O)c(Cl)c2)n1Cc1ccccc1 [Compound 1, 4-benzyl-5-(3,5-dichloro-4-hydroxyphenyl)-N-(4-phenoxybenzyl)-4H-1,2,4-triazole-3-carboxamide] was run?
Answer: Its IC50 is 7.14 µM.

Question: How did the IC50 turn out when COc1ccc(-n2c(C(=O)NCc3ccc(Oc4ccccc4)cc3)nnc2-c2cc(Cl)c(O)c(Cl)c2)cn1 [Compound 5, 5-(3,5-dichloro-4-hydroxyphenyl)-4-(6-methoxypyridin-3-yl)-N-(4-phenoxybenzyl)-4H-1,2,4-triazole-3-carboxamide] was run?
Answer: The IC50 was 7.74 µM.

Question: Which IC50 does the source give for O=C(NCc1ccc(Oc2ccccc2)cc1)c1nnc(-c2cc(Cl)c(O)c(Cl)c2)n1Cc1cccnc1 [Compound 3, 5-(3,5-Dichloro-4-hydroxyphenyl)-N-(4-phenoxybenzyl)-4-(pyridin-3-ylmethyl)-4H-1,2,4-triazole-3-carboxamide] here?
Answer: Its IC50 is 7.18 µM.

Question: For O=C(NCc1ccc(Oc2ccccc2)cc1)c1nnc(-c2cc(Cl)c(O)c(Cl)c2)n1Cc1ccccn1 [Compound 4, 5-(3,5-dichloro-4-hydroxyphenyl)-N-(4-phenoxybenzyl)-4-(pyridin-2-ylmethyl)-4H-1,2,4-triazole-3-carboxamide], which IC50 is on record?
Answer: Its IC50 is 12.9 µM.
